Source: patent US20170001990A1 (Genentech, Inc., priority 2014, published 2017)

Each compound was assayed against Human recombinant carboxy-terminal his-tagged LDHA (amino acids 2-332) (Homo sapiens, UniProt P00338) (assay: LDHA enzyme inhibition assay (NADH fluorescence)). Conditions: LDHA IC50 (μM), 1 nM LDHA, NADH and pyruvate, stereochemistry of tested sample given.

How did the IC50 turn out when `O=C1CC(c2ccsc2)(c2cccc(Oc3cccc(C(F)(F)F)c3)n2)NC(=O)C1Sc1ccccc1Cl` (centres unmarked) [Example 169, 3-(2-chlorophenyl)sulfanyl-6-(3-thienyl)-6-[6-[3-(trifluoromethyl)phenoxy]-2-pyridyl]piperidine-2,4-dione] was run?
Its IC50 is 0.01 µM.

`O=C1CC(c2ccsc2)(c2cccc(Oc3ccc(F)nc3Cl)n2)NC(=O)C1Sc1ccccc1Cl` (centres unmarked) [Example 324, 6-[6-[(2-chloro-6-fluoro-3-pyridyl)oxy]-2-pyridyl]-3-(2-chlorophenyl) sulfanyl-6-(3-thienyl) piperidine-2,4-dione] was tested. Which IC50 did it give?
The IC50 was 0.084 µM.

For `COc1cc(Cc2cccc(C3(c4ccsc4)CC(=O)C(Sc4ccccc4Cl)C(=O)N3)n2)ccc1F` (centres unmarked) [Example 259, 3-((2-chlorophenyl)thio)-6-(6-(4-fluoro-3-methoxy-benzyl)pyridin-2-yl)-6-(thiophen-3-yl)piperidine-2,4-dione], which IC50 is on record?
Its IC50 is 0.011 µM.

Which IC50 does the source give for `CC(Oc1cccc(C2(c3ccsc3)CC(=O)C(Sc3ccccc3Cl)C(=O)N2)n1)c1ccc(Cl)cc1` (centres unmarked) [Example 311, 6-(6-(1-(4-chlorophenyl)ethoxy)pyridin-2-yl)-3-((2-chlorophenyl)thio)-6-(thiophen-3-yl)piperidine-2,4-dione] here?
Its IC50 is 0.59 µM.

`CC1(COc2cccc(C3(c4ccsc4)CC(=O)C(Sc4ccccc4Cl)C(=O)N3)n2)CC1` (single isomer, unassigned) [Example 206, 3-(2-chlorophenyl)sulfanyl-6-[6-[(1-methylcyclopropyl)methoxy]-2-pyridyl]-6-(3-thienyl)piperidine-2,4-dione] was tested. Which IC50 did it give?
The IC50 was 0.027 µM.

How did the IC50 turn out when `Cn1nccc1Nc1cccc(C2(c3ccsc3)CC(=O)C(Sc3ccccc3Cl)C(=O)N2)n1` (centres unmarked) [Example 269, 3-((2-chlorophenyl)thio)-6-(6-((1-methyl-1H-pyrazol-5-yl)amino)pyridin-2-yl)-6-(thiophen-3-yl)piperidine-2,4-dione] was run?
The IC50 was 0.073 µM.

For `CCOCCOc1cccc(C2(c3ccsc3)CC(=O)C(Sc3ccccc3Cl)C(=O)N2)n1` (single isomer, unassigned) [Example 200, 3-(2-chlorophenyl)sulfanyl-6-[6-(2-ethoxyethoxy)-2-pyridyl]-6-(3-thienyl) piperidine-2,4-dione], which IC50 is on record?
The IC50 was 0.229 µM.

With `CN(c1ccc(F)cc1)c1cccc(C2(c3ccsc3)CC(=O)C(Sc3ccccc3Cl)C(=O)N2)n1` (single isomer, unassigned) [Example 262, 3-((2-chlorophenyl)thio)-6-(6-((4-fluorophenyl) (methyl)amino)pyridin-2-yl)-6-(thiophen-3-yl)piperidine-2,4-dione] as the compound, how does the IC50 read?
The IC50 was 0.104 µM.

For `CC[C@@H](Nc1cccc(C2(c3ccsc3)CC(=O)C(Sc3ccccc3Cl)C(=O)N2)n1)c1ccc(F)c(Cl)c1` (stereo partly drawn) [Example 297, 6-(6-(((R)-1-(3-chloro-4-fluorophenyl)propyl)amino)pyridin-2-yl)-3-((2-chlorophenyl)thio)-6-(thiophen-3-yl)piperidine-2,4-dione], which IC50 is on record?
Its IC50 is 0.149 µM.

How did the IC50 turn out when `COc1cccc(N(C)c2cccc(C3(c4ccsc4)CC(=O)C(Sc4ccccc4Cl)C(=O)N3)n2)c1` (centres unmarked) [Example 274, 3-((2-chlorophenyl)thio)-6-(6-((3-methoxyphenyl) (methyl)amino)pyridin-2-yl)-6-(thiophen-3-yl) piperidine-2,4-dione] was run?
Its IC50 is 0.157 µM.

With `O=C1CC(c2ccsc2)(c2cccc(N3CCc4ccc(CO)cc43)n2)NC(=O)C1Sc1ccccc1Cl` (centres unmarked) [Example 177, 3-(2-chlorophenyl)sulfanyl-6-[6-[6-(hydroxymethyl)indolin-1-yl]-2-pyridyl]-6-(3-thienyl)piperidine-2,4-dione] as the compound, how does the IC50 read?
Its IC50 is 0.016 µM.

For `CC(C)(O)CCOc1cccc(C2(c3ccsc3)CC(=O)C(Sc3ccccc3Cl)C(=O)N2)n1` (single isomer, unassigned) [Example 170, 3-(2-chlorophenyl)sulfanyl-6-[6-(3-hydroxy-3-methyl-butoxy)-2-pyridyl]-6-(3-thienyl)piperidine-2,4-dione], which IC50 is on record?
Its IC50 is 0.145 µM.

Which IC50 does the source give for `O=C1CC(c2ccsc2)(c2cccc(OC3CCCc4ccccc43)n2)NC(=O)C1Sc1ccccc1Cl` (centres unmarked) [Example 321, 5-(2-chlorophenyl)sulfanyl-4-hydroxy-2-(6-tetralin-1-yloxy-2-pyridyl)-2-(3-thienyl)-1,3-dihydro-pyridin-6-one] here?
The IC50 was 0.246 µM.

How did the IC50 turn out when `O=C1CC(c2ccsc2)(c2cccc(N[C@H](CO)c3ccc(F)c(Cl)c3)n2)NC(=O)C1Sc1ccccc1Cl` (stereo partly drawn) [Example 296, 6-(6-(((S)-1-(3-chloro-4-fluorophenyl)-2-hydroxy-ethyl)amino)pyridin-2-yl)-3-((2-chlorophenyl)thio)-6-(thiophen-3-yl) piperidine-2,4-dione] was run?
Its IC50 is 0.039 µM.

How did the IC50 turn out when `CCC1CN(c2ccc(C3(c4ccsc4)CC(=O)C(Sc4ccccc4Cl)C(=O)N3)cc2)CCO1` (centres unmarked) [Example 66, 3-(2-chlorophenyl)sulfanyl-6-[4-(2-ethylmorpholin-4-yl)phenyl]-6-(3-thienyl) piperidine-2,4-dione] was run?
Its IC50 is 0.089 µM.

Which IC50 does the source give for `O=C1CC(c2ccsc2)(c2cccc(Oc3ccc(F)c4cccnc34)n2)NC(=O)C1Sc1ccccc1Cl` (centres unmarked) [Example 98, 3-(2-chlorophenyl)sulfanyl-6-[6-[(5-fluoro-8-quinolyl)oxy]-2-pyridyl]-6-(3-thienyl)piperidine-2,4-dione] here?
The IC50 was 0.167 µM.

For `O=C1CC(c2ccsc2)(c2cccc(OCC3CC(F)(F)C3)n2)NC(=O)C1Sc1ccccc1Cl` (single isomer, unassigned) [Example 215, 3-(2-chlorophenyl)sulfanyl-6-[6-[(3,3-difluorocyclo-butyl)methoxy]-2-pyridyl]-6-(3-thienyl)piperidine-2,4-dione], which IC50 is on record?
Its IC50 is 0.014 µM.

`O=C1CC(c2ccsc2)(c2cccc(OCC(F)F)n2)NC(=O)C1Sc1ccccc1Cl` (single isomer, unassigned) [Example 245, 3-(2-chlorophenyl)sulfanyl-6-[6-(2,2-difluoroethoxy)-2-pyridyl]-6-(3-thienyl) piperidine-2,4-dione] was tested. Which IC50 did it give?
The IC50 was 0.018 µM.

For `O=C1CC(c2ccsc2)(c2cccc(-c3ccncc3)n2)NC(=O)C1Sc1ccccc1Cl` (centres unmarked) [Example 260, 6-([2,4′-bipyridin]-6-yl)-3-((2-chlorophenyl)thio)-6-(thiophen-3-yl)piperidine-2,4-dione], which IC50 is on record?
Its IC50 is 0.006 µM.

How did the IC50 turn out when `O=C1CC(c2ccsc2)(c2cccc(NCc3ccc(F)cc3)n2)NC(=O)C1Sc1ccccc1Cl` (single isomer, unassigned) [Example 292, 3-((2-chlorophenyl)thio)-6-(6-((4-fluorobenzyl)amino)pyridin-2-yl)-6-(thiophen-3-yl)piperidine-2,4-dione] was run?
The IC50 was 0.037 µM.

`O=C1CC(c2ccsc2)(c2cccc(OCC3CCC(CO)CC3)n2)NC(=O)C1Sc1ccccc1Cl` (single isomer, unassigned) [Example 233, 3-((2-chlorophenyl)thio)-6-(6-((4-(hydroxymethyl)cyclohexyl)methoxy)pyridin-2-yl)-6-(thiophen-3-yl)piperidine-2,4-dione] was tested. Which IC50 did it give?
The IC50 was 0.017 µM.

Which IC50 does the source give for `CCC(C)COc1cccc(C2(c3ccsc3)CC(=O)C(Sc3ccccc3Cl)C(=O)N2)n1` (centres unmarked) [Example 210, 3-(2-chlorophenyl)sulfanyl-6-[6-(2-methylbutoxy)-2-pyridyl]-6-(3-thienyl) piperidine-2,4-dione] here?
Its IC50 is 0.008 µM.

`CN(C)c1cccc(C2(c3ccsc3)CC(=O)C(Sc3ccccc3Cl)C(=O)N2)n1` (centres unmarked) [Example 85, 3-((2-chlorophenyl)thio)-6-(6-(dimethylamino)pyridin-2-yl)-6-(thiophen-3-yl)piperidine-2,4-dione] was tested. Which IC50 did it give?
The IC50 was 0.018 µM.

Which IC50 does the source give for `O=C1CC(c2ccsc2)(c2cccc(OCC3CCCO3)n2)NC(=O)C1Sc1ccccc1Cl` (single isomer, unassigned) [Example 235, 3-(2-chlorophenyl)sulfanyl-6-[6-(tetrahydrofuran-2-ylmethoxy)-2-pyridyl]-6-(3-thienyl)piperidine-2,4-dione] here?
The IC50 was 0.021 µM.

Which IC50 does the source give for `O=C1CC(c2ccsc2)(c2cccc(OC3CCCc4c(F)cccc43)n2)NC(=O)C1Sc1ccccc1Cl` (centres unmarked) [Example 333, 5-(2-chlorophenyl)sulfanyl-2-[6-(5-fluorotetralin-1-yl)oxy-2-pyridyl]-4-hydroxy-2-(3-thienyl)-1,3-dihydropyridin-6-one] here?
Its IC50 is 0.198 µM.

For `O=C1CC(c2ccsc2)(c2cccc(Oc3cc(F)cc(CO)c3)n2)NC(=O)C1Sc1ccccc1Cl` (single isomer, unassigned) [Example 234, 3-(2-chlorophenyl)sulfanyl-6-[6-[3-fluoro-5-(hydroxy-methyl)phenoxy]-2-pyridyl]-6-(3-thienyl)piperidine-2,4-dione], which IC50 is on record?
Its IC50 is 0.004 µM.

How did the IC50 turn out when `CC(C)CCOc1cccc(C2(c3ccsc3)CC(=O)C(Sc3ccccc3Cl)C(=O)N2)n1` (single isomer, unassigned) [Example 119, 3-(2-chlorophenyl)sulfanyl-6-(6-isopentyloxy-2-pyridyl)-6-(3-thienyl) piperidine-2,4-dione] was run?
The IC50 was 0.293 µM.

`O=C1CC(c2ccsc2)(c2cccc(OC3CCC(O)C3)n2)NC(=O)C1Sc1ccccc1Cl` (single isomer, unassigned) [Example 106, 3-((2-chlorophenyl)thio)-6-(6-((3-hydroxy-cyclopentyl)oxy)pyridin-2-yl)-6-(thiophen-3-yl)piperidin-2,4-dione] was tested. Which IC50 did it give?
The IC50 was 0.732 µM.

For `O=C1CC(c2ccsc2)(c2cccc(OCCC3CCCC3)n2)NC(=O)C1Sc1ccccc1Cl` (single isomer, unassigned) [Example 134, 3-(2-chlorophenyl)sulfanyl-6-[6-(2-cyclopentyl-ethoxy)-2-pyridyl]-6-(3-thienyl)piperidine-2,4-dione], which IC50 is on record?
The IC50 was 0.008 µM.

For `Cn1ccnc1COc1cccc(C2(c3ccsc3)CC(=O)C(Sc3ccccc3Cl)C(=O)N2)n1` (centres unmarked) [Example 229, 3-(2-chlorophenyl)sulfanyl-6-[6-[(1-methylimidazol-2-yl)methoxy]-2-pyridyl]-6-(3-thienyl)piperidine-2,4-dione], which IC50 is on record?
The IC50 was 0.011 µM.

For `O=C1C[C@](c2ccsc2)(c2cccc(OCCC3CC3)n2)NC(=O)C1Sc1ccccc1Cl` (stereo partly drawn) [Example 92, (6S)-3-((2-chlorophenyl)thio)-6-(6-(2-cyclopropyl-ethoxy)pyridin-2-yl)-6-(thiophen-3-yl)piperidine-2,4-dione], which IC50 is on record?
The IC50 was 0.007 µM.

For `O=C1CC(c2ccsc2)(c2cccc(Oc3cccc(F)c3)n2)NC(=O)C1Sc1ccccc1Cl` (single isomer, unassigned) [Example 47, 3-(2-chlorophenyl) sulfanyl-6-[6-(3-fluorophenoxy)-2-pyridyl]-6-(3-thienyl)piperidine-2,4-dione], which IC50 is on record?
The IC50 was 0.12 µM.
